Reference: BigSolDB 2.1

CCOC(=O)CCC(=O)O[C@H]1[C@H](O[C@@H]2[C@@H](C)[C@H](O[C@H]3C[C@@](C)(OC)[C@@H](O)[C@H](C)O3)[C@@H](C)C(=O)O[C@H](CC)[C@@](C)(O)[C@H](O)[C@@H](C)C(=O)[C@H](C)C[C@@]2(C)O)O[C@H](C)C[C@@H]1N(C)C
solubility (mole fraction) (in THF, 288.15 K): 0.036
solubility (mole fraction) (in THF, 293.15 K): 0.0416
solubility (mole fraction) (in THF, 298.15 K): 0.0491
solubility (mole fraction) (in THF, 303.15 K): 0.058
solubility (mole fraction) (in THF, 308.15 K): 0.0684
solubility (mole fraction) (in THF, 313.15 K): 0.081
solubility (mole fraction) (in THF, 318.15 K): 0.0977
solubility (mole fraction) (in THF, 323.15 K): 0.114
solubility (mole fraction) (in acetone, 288.15 K): 0.0138
solubility (mole fraction) (in acetone, 293.15 K): 0.0175
solubility (mole fraction) (in acetone, 298.15 K): 0.0219
solubility (mole fraction) (in acetone, 303.15 K): 0.0268
solubility (mole fraction) (in acetone, 308.15 K): 0.0347
solubility (mole fraction) (in acetone, 313.15 K): 0.0425
solubility (mole fraction) (in acetone, 318.15 K): 0.0527
solubility (mole fraction) (in acetone, 323.15 K): 0.0614
solubility (mole fraction) (in acetonitrile, 288.15 K): 0.0019
solubility (mole fraction) (in acetonitrile, 293.15 K): 0.00252
solubility (mole fraction) (in acetonitrile, 298.15 K): 0.00332
solubility (mole fraction) (in acetonitrile, 303.15 K): 0.00397
solubility (mole fraction) (in acetonitrile, 308.15 K): 0.00504
solubility (mole fraction) (in acetonitrile, 313.15 K): 0.00703
solubility (mole fraction) (in acetonitrile, 318.15 K): 0.00906
solubility (mole fraction) (in acetonitrile, 323.15 K): 0.0114
solubility (mole fraction) (in ethanol, 288.15 K): 0.00762
solubility (mole fraction) (in ethanol, 293.15 K): 0.00966
solubility (mole fraction) (in ethanol, 298.15 K): 0.0128
solubility (mole fraction) (in ethanol, 303.15 K): 0.017
solubility (mole fraction) (in ethanol, 308.15 K): 0.0242
solubility (mole fraction) (in ethanol, 313.15 K): 0.0323
solubility (mole fraction) (in ethanol, 318.15 K): 0.0414
solubility (mole fraction) (in ethanol, 323.15 K): 0.0518
solubility (mole fraction) (in isopropanol, 288.15 K): 0.00814
solubility (mole fraction) (in isopropanol, 293.15 K): 0.0106
solubility (mole fraction) (in isopropanol, 298.15 K): 0.0141
solubility (mole fraction) (in isopropanol, 303.15 K): 0.0187
solubility (mole fraction) (in isopropanol, 308.15 K): 0.0249
solubility (mole fraction) (in isopropanol, 313.15 K): 0.0342
solubility (mole fraction) (in isopropanol, 318.15 K): 0.0459
solubility (mole fraction) (in isopropanol, 323.15 K): 0.0556
solubility (mole fraction) (in n-hexane, 288.15 K): 9.26e-05
solubility (mole fraction) (in n-hexane, 293.15 K): 0.000129
solubility (mole fraction) (in n-hexane, 298.15 K): 0.000158
solubility (mole fraction) (in n-hexane, 303.15 K): 0.000213
solubility (mole fraction) (in n-hexane, 308.15 K): 0.000286
solubility (mole fraction) (in n-hexane, 313.15 K): 0.000371
solubility (mole fraction) (in n-hexane, 318.15 K): 0.000562
solubility (mole fraction) (in n-hexane, 323.15 K): 0.000698
